Here are results for 15 compounds from US20250228865A1, “COMPOUNDS FOR ENHANCING READ THROUGH OF GENES CONTAINING PREMATURE TERMINATION CODONS AND METHODS FOR MAKING AND USING THE SAME” (Sanofi US Services Inc., priority 2022, published 2025).

pEC50: −log10 of the molar value.

In general, pEC50 refers to the negative decadic logarithm of the EC50, by convention in mol/L.

For assay [1], the system named is recombinant human CFTR carrying the premature stop codon (PTC) mutation R1162X. The assay is described as follows: CFTR-PTC mutant translation readthrough, Nanoluc tagged CFTR luminescence (R1162X cell line). It counts as cell-based. The settings on record: for CFTR R1162X ACTIVITY Fold 10 μM G-418: fold over 10 μM G-418, in combination with G418; for pEC50: in combination with G418, 16HBE cells, read-out: CFTR R1162X ACTIVITY EC50. The procedure: (§1) 16HBE human bronchial epithelial cells (stably over-expressing recombinant human CFTR carrying the premature stop codon (PTC) mutation G542X or R1162X along with a Nanoluc tag incorporated into the CFTR channel within extracellular loop 4 in G542X cell line or C-terminus end in the R1162X cell line were seeded at 0.01×10^6 cells/well and grown in Minimal Essential Medium (MEM) as monolayers in 384 well plates and incubated at 37° C. with 5% CO2. Media was changed every other day until day of experiment. Agents to be evaluated were made up in separate 384 well, polypropylene plates at a 2X the final desired test concentration. Test agent 10-point concentration response curves were constructed using the Labcyte Echo 555 acoustic dispenser. Test agents were typically tested at a max final test concentrations of 50 μM with sequential 2-fold lower concentrations below this in the absence or presence of a fixed 10 μM concentration of the aminoglycoside G418 made up in MEM growth media (reduced Serum Media+HEPES Buffer+2.4 g/L Sodium Bicarbonate+L-Glutamine containing CFTR corrector VX-809 (3 μM)). Treatment with 10 μM G418 alone produced approximately 10% of the response observed with a maximally effective concentration of G418 (typically 125-250 μM). Test agent effects in presence of 10 μM G418 were compared to control wells on the plate containing a maximally effective concentration of G418 (typically 125-250 μM) made up in the same media. 25 ul of test agents/control solutions were transferred from the compound plate to the cell plate, which already contained 25 ul/well of cell plating media, using an Integra Viaflo 384. Cell plates were incubated with the compounds for 48 hours, at which time they were processed using Nanoluc luminescence Kit (Promega Nano-Glo Live Cell Assay System) to measure CFTR-PTC mutant translation readthrough. Luminescence was measured as follows. Cell plates were removed from the incubator and allowed to equilibrate to room temperature for 20 minutes. Media was removed from all wells and the plates were blotted to remove excess remaining volume. Nano-Glo Live Cell Substrate was diluted 1:20 in the appropriate amount of Nano-Glo LCS Dilution Buffer to accommodate the number of cell plates being tested. The substrate/dilution buffer mix was then diluted 1:3 with MEM media to make the appropriate volume for the number of plates being tested. The substrate/dilution buffer/OptiMEM mix was added across the Nanoluc testing cell plates and the plates were read for luminescence signal immediately. Test agent effects on CFTR translation readthrough was determined by normalizing any observed increase in luminescence induced by 48 hours pretreatment with test compound to the magnitude of luminescence increase produced by pretreatment with a maximally effective concentration of the reference readthrough enhancing agent G418 (125-250 μM).

Assay [2] deals with recombinant human CFTR carrying the premature stop codon (PTC) mutation G542X. The assay is described as follows: CFTR-PTC mutant translation readthrough, Nanoluc tagged CFTR luminescence (G542X cell line). It counts as cell-based. The settings on record: in combination with G418, G542X cell line; for CFTR G542X ACTIVITY Fold 10 μM G-418: fold over 10 μM G-418; for pEC50: 16HBE cells. The procedure:
as §1

Turning to `OCCn1cnc(Nc2ccc(OCc3c(Cl)cccc3Cl)cn2)n1`, in assay [1], the “CFTR R1162X ACTIVITY Fold 10 μM G-418” value is on record as “A′ (A′ = ≥10X)” and the negative logarithm of the EC50 (pEC50) was 5.00 to 6.00. In assay [2], the “CFTR G542X ACTIVITY Fold 10 μM G-418” value is “A′ (A′ = ≥10X)” and the pEC50 is 5.00 to 6.00.
With `O=C1OC(CO)CN1c1ccc(OCc2c(Cl)ccc(F)c2Cl)cc1` (stereo not drawn), in assay [1], the “CFTR R1162X ACTIVITY Fold 10 μM G-418” value is “B′ (B′ = ≥5X to <10X)” and the pEC50 is 5.00 to 6.00. Besides, in assay [2], the “CFTR G542X ACTIVITY Fold 10 μM G-418” value was “A′ (A′ = ≥10X)” and the negative-log EC50 (pEC50) is 5.00 to 6.00.
Take `O=C1OC(CO)CN1c1ccc(OCc2c(Cl)cc(F)cc2Cl)cc1` (stereo not drawn): in assay [1], the “CFTR R1162X ACTIVITY Fold 10 μM G-418” value was “B′ (B′ = ≥5X to <10X)” and the pEC50 is below 5.00. Besides, in assay [2], the “CFTR G542X ACTIVITY Fold 10 μM G-418” value is on record as “B′ (B′ = ≥5X to <10X)” and the pEC50 was below 5.00.
As for `O=C1OC(CO)CN1c1ccc(OCc2c(Cl)cccc2C(F)(F)F)cn1` (stereo not drawn), in assay [1], the “CFTR R1162X ACTIVITY Fold 10 μM G-418” value is reported as “A′ (A′ = ≥10X)” and the pEC50 was 5.00 to 6.00. In addition, in assay [2], the “CFTR G542X ACTIVITY Fold 10 μM G-418” value is reported as “A′ (A′ = ≥10X)” and the pEC50 was above 6.00.
Regarding `Cc1cccc(C(F)(F)F)c1COc1cnc(N2CCN(C(N)=O)CC2)nc1`, in assay [1], the “CFTR R1162X ACTIVITY Fold 10 μM G-418” value was “A′ (A′ = ≥10X)” and the pEC50 was above 6.00. Besides, in assay [2], the “CFTR G542X ACTIVITY Fold 10 μM G-418” value was “A′ (A′ = ≥10X)” and the pEC50 is above 6.00.
Take `Clc1cccc(Cl)c1COc1cnc(N2CC3CC2CO3)nc1` (stereo not drawn): in assay [1], the “CFTR R1162X ACTIVITY Fold 10 μM G-418” value was “A′ (A′ = ≥10X)” and the pEC50 is 5.00 to 6.00. Also, in assay [2], the “CFTR G542X ACTIVITY Fold 10 μM G-418” value is given as “A′ (A′ = ≥10X)” and the pEC50 is 5.00 to 6.00.
On to `O=C1OCC2CN(c3ncc(OCc4c(Cl)cccc4Cl)cn3)CCN12` (stereo not drawn), for which, in assay [1], the “CFTR R1162X ACTIVITY Fold 10 μM G-418” value is reported as “B′ (B′ = ≥5X to <10X)” and the pEC50 was 5.00 to 6.00. In assay [2], the “CFTR G542X ACTIVITY Fold 10 μM G-418” value is “A′ (A′ = ≥10X)” and the pEC50 was 5.00 to 6.00.
As for `CC(=O)NCC1CN(c2ccc(OCc3c(C)cccc3C(F)(F)F)cc2)C(=O)O1` (stereo not drawn), in assay [1], the “CFTR R1162X ACTIVITY Fold 10 μM G-418” value was “A′ (A′ = ≥10X)” and the pEC50 was 5.00 to 6.00. For the same compound, in assay [2], the “CFTR G542X ACTIVITY Fold 10 μM G-418” value is given as “A′ (A′ = ≥10X)” and the pEC50 is 5.00 to 6.00.
For the compound `Cc1ccc(C(F)(F)F)c(COc2ccc(-n3cc(CO)nn3)cc2)c1F`, in assay [1], the “CFTR R1162X ACTIVITY Fold 10 μM G-418” value is “B′ (B′ = ≥5X to <10X)” and the pEC50 was below 5.00. In assay [2], the “CFTR G542X ACTIVITY Fold 10 μM G-418” value is “B′ (B′ = ≥5X to <10X)” and the negative logarithm of the EC50 (pEC50) was 5.00 to 6.00.
Take `Cc1cccc(C(F)(F)F)c1COc1ccc(-n2cnc(CO)n2)cc1`: in assay [1], the “CFTR R1162X ACTIVITY Fold 10 μM G-418” value is reported as “A′ (A′ = ≥10X)” and the pEC50 was above 6.00. In addition, in assay [2], the “CFTR G542X ACTIVITY Fold 10 μM G-418” value is “A′ (A′ = ≥10X)” and the pEC50 is above 6.00.
For the compound `Cc1cccc(C(F)(F)F)c1COc1cnc(-n2ccc(CO)n2)nc1`, in assay [1], the “CFTR R1162X ACTIVITY Fold 10 μM G-418” value is “A′ (A′ = ≥10X)” and the pEC50 is above 6.00. In assay [2], the “CFTR G542X ACTIVITY Fold 10 μM G-418” value is “A′ (A′ = ≥10X)” and the pEC50 is above 6.00.
Take `OCc1cn(-c2ccc(OCc3c(Cl)cccc3C(F)(F)F)cn2)cn1`: in assay [1], the “CFTR R1162X ACTIVITY Fold 10 μM G-418” value was “A′ (A′ = ≥10X)” and the negative logarithm of the EC50 (pEC50) was 5.00 to 6.00. Further, in assay [2], the “CFTR G542X ACTIVITY Fold 10 μM G-418” value is on record as “A′ (A′ = ≥10X)” and the pEC50 is above 6.00.
Take `OCc1cn(-c2ncc(OCc3c(Cl)cccc3C(F)(F)F)cn2)cn1`: in assay [1], the “CFTR R1162X ACTIVITY Fold 10 μM G-418” value was “C′ (C′ = <5X)” and the negative-log EC50 (pEC50) is above 6.00. Besides, in assay [2], the “CFTR G542X ACTIVITY Fold 10 μM G-418” value was “C′ (C′ = <5X)” and the negative logarithm of the EC50 (pEC50) was above 6.00.
As to `OCc1cn(-c2ncc(OCc3c(Cl)cccc3C(F)(F)F)cn2)nn1`, in assay [1], the “CFTR R1162X ACTIVITY Fold 10 μM G-418” value was “A′ (A′ = ≥10X)” and the pEC50 is 5.00 to 6.00. Moreover, in assay [2], the “CFTR G542X ACTIVITY Fold 10 μM G-418” value is reported as “A′ (A′ = ≥10X)” and the pEC50 is 5.00 to 6.00.
Regarding `Cc1cccc(C(F)(F)F)c1COc1cnc(-n2cc(CO)nn2)nc1`, in assay [1], the “CFTR R1162X ACTIVITY Fold 10 μM G-418” value is “A′ (A′ = ≥10X)” and the pEC50 was 5.00 to 6.00. Further, in assay [2], the “CFTR G542X ACTIVITY Fold 10 μM G-418” value is reported as “A′ (A′ = ≥10X)” and the pEC50 was 5.00 to 6.00.
